Reference: patent US20230312556A1, “ARYLAMIDE COMPOUND, PHARMACEUTICAL COMPOSITION COMPRISING SAME, AND PREPARATION METHOD THEREFOR AND USE THEREOF” (SICHUAN KELUN-BIOTECH BIOPHARMACEUTICAL CO., LTD., priority 2020, published 2023)

Legend:
[1] = tested on: human hepatocellular carcinoma cell HepG2 (NRAS-Q61K mutation); assay: Cancer cell proliferation inhibition assay, HepG2; format: cell-based; conditions: 72 h incubation, Cell Titer Glo
Source text: (§1) The inhibitory effects of the compounds of the present invention on cancer cell proliferation were further evaluated by testing the effects of the compounds of the present invention on the growth of cancer cells.
(§2) In this example, human melanoma cell A375 (BRAF-V600E mutation, purchased from the Cell Bank of the Chinese Academy of Sciences) and human hepatocellular carcinoma cell HepG2 (NRAS-Q61K mutation, purchased from ATCC, USA) were employed.
(§3) In this example, the test compounds at various concentrations (100000 nM, 30000 nM, 10000 nM, 3000 nM, 1000 nM, 300 nM, 100 nM, 30 nM, 10 nM) were added to the above cells, and the incubation was performed for 72 h. The inhibitory activity of the compounds was tested by measuring ATP in living cells using the Cell Titer Glo Kit (Promega).
(§4) The IC50 values of the compounds of the present invention for each tested cell were determined, and the test results are as follows: […]

wild-type BRAF enzyme = wild-type BRAF enzyme (Homo sapiens (Human), UniProt P15056); assay: RAF inhibition assay (TB-PMAP2K1 kit), wild-type BRAF; format: biochemical; conditions: FLUORESCEIN-MAP2K1 substrate, 60 min reaction
wild-type BRAF enzyme, sequence (P15056 whole entry): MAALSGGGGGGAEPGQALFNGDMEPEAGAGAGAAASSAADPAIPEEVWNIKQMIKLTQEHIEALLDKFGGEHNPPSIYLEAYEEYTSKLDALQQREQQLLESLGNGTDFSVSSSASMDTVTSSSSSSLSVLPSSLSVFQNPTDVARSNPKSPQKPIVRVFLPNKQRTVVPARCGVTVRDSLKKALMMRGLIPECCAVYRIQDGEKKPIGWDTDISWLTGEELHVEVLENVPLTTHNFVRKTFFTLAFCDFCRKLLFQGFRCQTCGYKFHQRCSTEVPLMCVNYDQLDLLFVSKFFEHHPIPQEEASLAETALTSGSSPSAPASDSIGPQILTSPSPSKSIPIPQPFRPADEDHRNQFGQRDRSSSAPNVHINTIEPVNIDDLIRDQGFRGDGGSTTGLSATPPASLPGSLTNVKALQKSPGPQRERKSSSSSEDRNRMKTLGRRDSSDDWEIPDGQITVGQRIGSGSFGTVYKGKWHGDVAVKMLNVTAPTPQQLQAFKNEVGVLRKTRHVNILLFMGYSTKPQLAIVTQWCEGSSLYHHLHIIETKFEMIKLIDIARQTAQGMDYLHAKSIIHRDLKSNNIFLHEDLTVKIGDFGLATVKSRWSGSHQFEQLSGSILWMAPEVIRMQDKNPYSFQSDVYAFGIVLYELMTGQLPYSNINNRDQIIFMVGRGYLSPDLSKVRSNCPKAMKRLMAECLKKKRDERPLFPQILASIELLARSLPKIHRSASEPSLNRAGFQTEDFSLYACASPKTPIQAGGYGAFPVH
Experimental: Assay protocol: the inhibitory effects of the compounds of the present invention on the wild-type BRAF enzyme, mutant CRAF enzyme (RAF1 Y340D and Y341D) and mutant BRAF enzyme (BRAF-V600E) activity were determined according to the instructions of the TB-PMAP2K1 (PSER217/221) kit (ThermoFisher). Different RAF enzymes and substrates (FLUORESCEIN-MAP2K1) were pre-incubated with test compounds at various concentrations at room temperature for 15 min, and then the adenosine triphosphate (ATP) was added to initiate the reaction. After incubation at room temperature for 60 min, EDTA and Tb-labeled anti-pMAP2K1 [pS217/221] antibody solutions were added, and incubation was performed at room temperature for 60 min before the detection of the fluorescence values of the compounds in each group. With the vehicle group (DMSO) as the negative control and the buffer group (without RAF enzyme) as the blank control, the relative inhibitory activity percentage (i.e., the inhibition rate) of a compound at different concentrations was calculated according to the following formula:
Relative inhibitory activity percentage=1−(Compound group at various concentrations−blank control)/(negative control−blank control)*100%
The relative inhibitory activity percentages of the compounds at different concentrations were plotted against the compound concentrations, the curve was fitted according to a four-parameter model, and the IC50 value was calculated according to the following formula:
y=min+(max−min)/(1+(x/IC50)^(−Hillslope))
wherein y is the relative inhibitory activity percentage, max and min are respectively the maximum and minimum values of the fitted curve, x is the logarithm concentration of the compound, and Hillslope is the slope of the curve.

[2] = tested on: human melanoma cell A375 (BRAF-V600E mutation); assay: Cancer cell proliferation inhibition assay, A375; format: cell-based; conditions: A-375, 72 h incubation, Cell Titer Glo
Source text: as §1, §2, §3, §4

| SMILES | IC50 [1] [nM] | IC50 (wild-type BRAF enzyme) [nM] | IC50 [2] [nM] |
| --- | --- | --- | --- |
| Cc1ccc2c(Cc3cccc(C(F)(F)F)c3)nccc2c1NC(=O)c1csc2c(N)ncnc12 [Compound 19, 4-amino-N-(6-methyl-1-(3-(trifluoromethyl)benzyl)isoquinolin-5-yl)thieno[3,2-d]pyrimidine-7-carboxamide] | 136 ± 21.3 | 21.6 ± 4.85 | 163 ± 21.3 |
| Cc1ccc2c(C(=O)c3cccc(C(F)(F)F)c3)nccc2c1NC(=O)c1csc2c(N)ncnc12 [Compound 22, 4-amino-N-(6-methyl-1-(3-(trifluoromethyl)benzoyl)isoquinolin-5-yl)thieno[3,2-d]pyrimidine-7-carboxamide] | – | 50.2 ± 8.47 | – |
| Cc1ccc2c(C(O)c3cccc(C(F)(F)F)c3)nccc2c1NC(=O)c1csc2c(N)ncnc12 (stereo not drawn) [Compound 23, 4-amino-N-(1-(hydroxy(3-(trifluoromethyl)phenyl)methyl)-6-methylisoquinolin-5-yl)thieno[3,2-d]pyrimidine-7-carboxamide] | – | 51.4 ± 1.64 | 64.7 ± 4.22 |
| Cc1ccc2c(C(O)c3ccc(Cl)cc3F)nccc2c1NC(=O)c1csc2c(N)ncnc12 (stereo not drawn) [Compound 28, 4-amino-N-(1-((4-chloro-2-fluorophenyl)(hydroxy)methyl)-6-methylisoquinolin-5-yl)thieno[3,2-d]pyrimidine-7-carboxamide] | – | 9.43 ± 0.76 | 98.8 ± 10.2 |
| Cc1ccc2c(C(C)Oc3ccccc3)nccc2c1NC(=O)c1csc2c(N)ncnc12 (stereo not drawn) [Compound 35, 4-amino-N-(6-methyl-1-(1-phenoxyethyl)isoquinolin-5-yl)thieno[3,2-d]pyrimidine-7-carboxamide] | – | 125 ± 3.5 | – |
| Cc1ccc2c(Nc3cccc(Cl)c3)nccc2c1NC(=O)c1cccc2c(N)ncnc12 [Compound 38, 4-amino-N-(1-((3-chlorophenyl)amino)-6-methylisoquinolin-5-yl)quinazoline-8-carboxamide] | 38.1 ± 3.6 | 23.2 ± 2.67 | 96.7 ± 14.3 |
| Cc1ccc2c(Nc3ccccc3F)nccc2c1NC(=O)c1cccc2c(N)ncnc12 [Compound 39, 4-amino-N-(1-((2-fluorophenyl)amino)-6-methylisoquinolin-5-yl)quinazoline-8-carboxamide] | 27.1 ± 2.5 | 8.44 ± 2.46 | – |
| Cc1ccc2c(Nc3ccc(Cl)cc3F)nccc2c1NC(=O)c1cccc2c(N)ncnc12 [Compound 41, 4-amino-N-(1-((4-chloro-2-fluorophenyl)amino)-6-methylisoquinolin-5-yl)quinazoline-8-carboxamide] | 55.6 ± 4.8 | 31.8 ± 5.36 | 22.2 ± 1.86 |
| Cc1ccc2c(Nc3cccc(C(F)(F)F)c3)nccc2c1NC(=O)c1cnc2c(N)ncnn12 [Compound 43, 4-amino-N-(6-methyl-1-((3-(trifluoromethyl)phenyl)amino)isoquinolin-5-yl)imidazo[2,1-f][1,2,4]triazine-7-carboxamide] | 32.9 ± 3.3 | 20.7 ± 5.71 | 61.7 ± 3 |
| Cc1ccc2c(Nc3ccc(F)c(Cl)c3)nccc2c1NC(=O)c1cnc2c(N)ncnn12 [Compound 58, 4-amino-N-(1-((3-chloro-4-fluorophenyl)amino)-6-methylisoquinolin-5-yl)imidazo[2,1-f][1,2,4]triazine-7-carboxamide] | 37.6 ± 3.34 | 10.8 ± 1.09 | – |
| Cc1ccc2c(Nc3ccc(Cl)c(F)c3F)nccc2c1NC(=O)c1cnc2c(N)ncnn12 [Compound 70, 4-amino-N-(1-((4-chloro-2,3-difluorophenyl)amino)-6-methylisoquinolin-5-yl)imidazo[2,1-f][1,2,4]triazine-7-carboxamide] | 59.9 ± 6.8 | – | 190 ± 23.8 |
| Cc1ccc2c(Nc3ccnc(C(F)(F)F)c3)nccc2c1NC(=O)c1cccc2c(N)ncnc12 [Compound 71, 4-amino-N-(6-methyl-1-((2-(trifluoromethyl)pyridin-4-yl)amino)isoquinolin-5-yl)quinazoline-8-carboxamide] | 53 ± 9.7 | – | 170 ± 13.8 |
| CCOc1ccc(Nc2nccc3c(NC(=O)c4cccc5c(N)ncnc45)c(C)ccc23)c(F)c1 [Compound 74, 4-amino-N-(1-((4-ethoxy-2-fluorophenyl)amino)-6-methylisoquinolin-5-yl)quinazoline-8-carboxamide] | 62.3 ± 9.2 | – | 62.7 ± 12.5 |
| COc1ccc(Nc2nccc3c(NC(=O)c4cccc5c(N)ncnc45)c(C)ccc23)cn1 [Compound 75, 4-amino-N-(1-((6-methoxypyridin-3-yl)amino)-6-methylisoquinolin-5-yl)quinazoline-8-carboxamide] | 34 ± 7.6 | – | 67.7 ± 15.1 |
| Cc1ccc2c(Nc3cccc(Cl)c3F)nccc2c1NC(=O)c1cc(O)cc2c(N)ncnc12 [Compound 76, 4-amino-N-(1-((3-chloro-2-fluorophenyl)amino)-6-methylisoquinolin-5-yl)-6-hydroxyquinazoline-8-carboxamide] | 147 ± 19.2 | – | 202 ± 5.74 |
| Cc1ccc2c(Nc3ccc4c(c3)OCCO4)nccc2c1NC(=O)c1cccc2c(N)ncnc12 [Compound 77, 4-amino-N-(1-((2,3-dihydrobenzo[b][1,4]dioxin-6-yl)amino)-6-methylisoquinolin-5-yl)quinazoline-8-carboxamide] | 51.4 ± 8.5 | – | 31.6 ± 7.42 |
| Cc1ccc2c(Nc3ccc(C#N)cc3F)nccc2c1NC(=O)c1cccc2c(N)ncnc12 [Compound 78, 4-amino-N-(1-((4-cyano-2-fluorophenyl)amino)-6-methylisoquinolin-5-yl)quinazoline-8-carboxamide] | 56.4 ± 5.8 | – | 63.5 ± 2.6 |
| Cc1ccc2c(Nc3cccc(Cl)c3F)nccc2c1NC(=O)c1cc(OCCN2CCOCC2)cc2c(N)ncnc12 [Compound 79, 4-amino-N-(1-((3-chloro-2-fluorophenyl)amino)-6-methylisoquinolin-5-yl)-6-(2-morpholinoethoxy)quinazoline-8-carboxamide] | 145 ± 12.3 | – | 72.2 ± 13 |
| Cc1ccc2c(Nc3cc(C#N)ccc3F)nccc2c1NC(=O)c1cccc2c(N)ncnc12 [Compound 80, 4-amino-N-(1-((5-cyano-2-fluorophenyl)amino)-6-methylisoquinolin-5-yl)quinazoline-8-carboxamide] | 75.4 ± 6 | – | 167 ± 8.47 |
| Cc1ccc2c(Nc3ccc4c(c3)CN(C)CC4)nccc2c1NC(=O)c1cccc2c(N)ncnc12 [Compound 82, 4-amino-N-(6-methyl-1-((2-methyl-1,2,3,4-tetrahydroisoquinolin-7-yl)amino)isoquinolin-5-yl)quinazoline-8-carboxamide] | 245 ± 27.3 | – | 141 ± 44.1 |
| Cc1ccc2c(Nc3cccc(C#N)c3F)nccc2c1NC(=O)c1cccc2c(N)ncnc12 [Compound 83, 4-amino-N-(1-((3-cyano-2-fluorophenyl)amino)-6-methylisoquinolin-5-yl)quinazoline-8-carboxamide] | 50.5 ± 8.48 | – | 61.9 ± 6.7 |
| Cc1ccc2c(Nc3cc(Cl)ccc3F)nccc2c1NC(=O)c1cc(F)cc2c(N)ncnc12 [Compound 84, 4-amino-N-(1-((5-chloro-2-fluorophenyl)amino)-6-methylisoquinolin-5-yl)-6-fluoroquinazoline-8-carboxamide] | 67.2 ± 9.93 | – | 165 ± 6.5 |
| Cc1ccc2c(Nc3cccc(Cl)c3F)nccc2c1NC(=O)c1cc(OCCO)cc2c(N)ncnc12 [Compound 86, 4-amino-N-(1-((3-chloro-2-fluorophenyl)amino)-6-methylisoquinolin-5-yl)-6-(2-hydroxyethoxy)quinazoline-8-carboxamide] | 48 ± 5.36 | – | 60.6 ± 2.8 |
| COc1ccc(F)c(Nc2nccc3c(NC(=O)c4cccc5c(N)ncnc45)c(C)ccc23)c1 [Compound 87, 4-amino-N-(1-((2-fluoro-5-methoxyphenyl)amino)-6-methylisoquinolin-5-yl)quinazoline-8-carboxamide] | 37.7 ± 7.05 | – | 56 ± 2.5 |
| Cc1ccc(Nc2nccc3c(NC(=O)c4cccc5c(N)ncnc45)c(C)ccc23)c(F)c1 [Compound 88, 4-amino-N-(1-((2-fluoro-4-methylphenyl)amino)-6-methylisoquinolin-5-yl)quinazoline-8-carboxamide] | 70.2 ± 9.8 | – | 55.4 ± 8 |
| Cc1ccc2c(Nc3cc(Br)ccc3F)nccc2c1NC(=O)c1cccc2c(N)ncnc12 [Compound 91, 4-amino-N-(1-((5-bromo-2-fluorophenyl)amino)-6-methylisoquinolin-5-yl)quinazoline-8-carboxamide] | 140 ± 17 | – | 87.1 ± 10.4 |
